Reference: US6262023A, “WD-40 derived peptides and uses thereof” (The Board of Trustees of the Leland Stanford Junior …, priority 1995, dated 2001)

Columns and labels:
[1] = system: PKC binding to RACK1; assay: Overlay / overlay-extraction assay: inhibition of PKC binding to recombinant RACK1 by peptides; design: species or system rat; details: 10 μM peptide preincubated with PKC isozyme mixture; compared with binding in the absence of added peptide; n=3
Protocol: Purified recombinant RACK1 protein (100-250 μg per lane, produced as detailed in Example 2) was subjected to SDS/PAGE and blotted onto nitrocellulose membranes (Ausubel). The nitrocellulose membranes were cut into strips, which were incubated for 0.5 hr in overlay buffer (Example 1) in the presence or absence of a mixture of PKC isozymes (α, β, γ, ε and .zeta., ~10 nM each final concentration) and PKC activators (60 μg/ml phosphatidylserine (PS), 2 μg/ml diacylglycerol (DG), and 1 mM CaCl2). Unbound material was removed by five washes, 5-min each, in overlay wash buffer. Where indicated, PKC activators were present during the incubation of PKC with the nitrocellulose strips. The conditions for each sample and corresponding results are presented in part D below.
The variation in the overlay protocol consisted of incubating the putative binding peptides with a mixture of PKC isozymes for 15 minutes at room temperature before the mixture was used to contact the nitrocellulose strips containing immobilized RACK1.
Nitrocellulose strips containing immobilized RACK1, that had been contacted with a solution containing a mixture of PKC isozymes, were washed and the area corresponding to the 36 kDa (RACK1-containing) band was cut out. The pieces (containing PKC/RACK1 complexes) were incubated with sample buffer for 10 minutes at 80° C. The sample buffer and the nitrocellulose pieces were then placed in wells in the PAGE gel and subjected to SDS-PAGE to elute the bound proteins. The gel was blotted onto nitrocellulose and a Western blot analysis was carried out using the mixture of antibodies (specific for PKC α, β, γ, δ, ε and .zeta. isozymes) described in Example 1 part B. Bound antibodies were detected by ^125 I-protein A.
Peptides derived from or homologous to WD-40 repeats of RACK1 were tested for their ability to inhibit PKC binding to recombinant RACK1. Binding of PKC to RACK1 was carried out using a variation of the overlay procedure described in Example 3 part B. In the experimental samples, peptides were incubated with a solution containing a mixture of rat brain PKC isozymes (~10 nM each) for 15 minutes at room temperature.
Following completion of the modified overlay protocol, the samples were subjected to the overlay-extraction protocol detailed in part B, above.

[2] = system: PKC-mediated germinal vesicle breakdown (GVBD) in Xenopus oocytes; assay: PKC-mediated Xenopus oocyte maturation (germinal vesicle breakdown, GVBD) after peptide microinjection; type: cell-based
Protocol: Exposure to insulin induces maturation in Xenopus oocytes via a PKC-dependent pathway (Smith, et al., 1992). The maturation response may be quantified by monitoring the appearance of a white spot in the animal hemisphere of the oocyte, indicating germinal vesicle breakdown (GVBD) and maturation. To assess the effects of RACK1 WD-40-derived peptides on insulin-induced PKC-mediated maturation, 50 nl of a 20 mM NaCl solution containing the indicated peptides [peptide I (SEQ ID NO:1; .circle-solid.), peptide rVI (SEQ ID NO:7; .box-solid.), or injection solution (.quadrature.)] […] One hour following the peptide injections, the oocytes were exposed to a solution containing insulin (8.25 μg/ml) for 2 minutes (t=0). 10-15 oocytes were used for each sample.
The data, representative of three independent experiments, are expressed as the percent of oocytes with GVBD following insulin exposure and are plotted as a function of time in FIG. 5.

[3] = system: βPKC; assay: βPKC translocation (soluble vs particulate fraction) in Xenopus oocytes; type: cell-based; details: 50 μM peptide microinjected
Protocol: Insulin causes the translocation of βPKC, but not other PKC isozymes, from a cytosolic form to a membrane-associated form, as evidenced by the relative levels of PKC in the soluble vs. the particulate fraction of oocyte homogenate. To assess the effects of RACK1 WD-40-derived peptides on insulin-induced PKC translocation, 50 nl of a 20 mM NaCl solution containing the indicated peptides were microinjected into Xenopus oocytes. The oocytes were then homogenized, and the relative amount of PKC in the soluble and particulate fractions was assayed. The protocol followed was a modification of a method described by Smith, et al. (1992).
Batches of 50 oocytes were microinjected with either peptide rVI (SEQ ID NO:7; 50 μM; lanes 3, 4), peptide I (SEQ ID NO:1; 50 μM, lanes 7, 8) or injection solution (NaCl 20 mM, lanes 1,2 and 5,6). Homogenates from each batch were prepared 60 minutes after microinjection (lanes 1-4) or 60 minutes after addition of insulin (lanes 5-8). The homogenates were centrifuged at 10,000 g for 3 minutes, the upper layer (containing fat and yolk) was removed, and the remainder was frozen at -70° C. […] The amount of PKC in each fraction was determined by Western blot using anti-βPKC antibodies (1:1000 dilution; Seikagaku Kogyo, Tokyo, Japan). Bound primary antibodies were detected by chemiluminescence as described in Example 3, part C.

[4] = system: PKC; assay: PKC autophosphorylation; type: biochemical, rat; details: 10 μM peptide; no PS, DG, calcium
Protocol: Rat brain PKC (~10 nM) was incubated with mild agitation in a final volume of 250 μl of overlay buffer, as in Example 1 either with anti-βPKC pseudosubstrate antibodies (1:10 dilution, Life Technologies, Gaithersburg, Md.) or with the indicated peptide (10 μM). Where indicated, PS (50 μg/ml), DG (0.8 μg/ml) and CaCl2 (1 mM) were also added. The amount of autophosphorylation was determined after 2 hours for the reaction with the anti-pseudosubstrate antibodies, or after 15 minutes for the other samples. 50 μl of a buffer comprised of 20 mM Tris-HCl (pH 7.5), 20 mM MgCl2, 20 μM ATP and 5 μci/ml [γ-^32 P]ATP. The mixture was incubated for 15 minutes at room temperature and the reaction was stopped by adding 60 μl sample buffer (see Example 9). The samples were then boiled for 10 minutes, loaded onto a 10% SDS-PAGE mini gel and electrophoresed. The gel was fixed with 50% methanol and 10% acetic acid for 1 hour, and the autophosphorylation of PKC was determined by autoradiography.

[5] = system: δ and εPKC isozymes; assay: PKC isozyme translocation and degradation in cardiac myocytes; type: cell-based, rat; details: peptide introduced into cardiac myocytes
Excerpt: This peptide-induced translocation was followed by degradation of δ and εPKC isozymes.

For “peptide I: 15-residue peptide homologous to a sequence in the sixth WD-40 repeat of RACK1; PKC antagonist (KGDYEKILVALCGGN)”, which “inhibition of PKC binding to recombinant RACK1” value [1] is on record?
Its value is 81±6%.

What about the “plateau of % GVBD following insulin exposure” value ([2]; 50 nl of 50 μM peptide microinjected, insulin 8.25 μg/ml) of the same substance?
The value was 45-50 % GVBD.

And the “dose dependence of effect on GVBD” value ([2]; between 5 μm-500 μM)?
The value was “dose-dependent”.

And the “fraction of oocytes exposed to insulin that reach maturation” value ([2]; peptide microinjected, insulin)?
The value was 45-50%.

And the “effect on insulin (hormone)-induced βPKC translocation” value ([3]; 60 minutes after addition of insulin)?
Its value is “inhibited insulin-induced βPKC translocation”.

What about the “βPKC distribution / translocation in the absence of insulin treatment” value ([3]; homogenate 60 minutes after microinjection) of the same substance?
Its value is “did not affect βPKC distribution”.

What about the “induction of PKC autophosphorylation in the absence of PKC activators” value [4] of the same substance?
Its value is “Neither peptide I nor control peptide induced PKC autophosphorylation”.

What about the “effect on NE-induced translocation of PKC isozymes” value ([5]; norepinephrine 2 μM) of the same substance?
Its value is “inhibited”.

And the “degradation of δ and εPKC isozymes” value [5]?
Its value is “nor does it induce PKC degradation”.

What about the “translocation / distribution of δ and εPKC isozymes in the absence of hormone stimulation” value [5] of the same substance?
Its value is “does not affect PKC distribution”.
